Results on 24 compounds are retold here after PubChem BioAssay AID192 (DTP/NCI, 2004).

The test system of the assay is BDF1 mice, B16 melanoma ip, median survival T/C. Description: NCI In Vivo Anticancer Drug Screen. Data for tumor model B16 Melanoma (intraperitoneal) in B6D2F1 (BDF1) mice. As to conditions: endpoint: median survival time, higher = longer survival. A digest of the protocol:
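Tumor-bearing mice received test compound or vehicle. Survival or tumor size was then measured in both groups. The treated-group figure was divided by the control-group figure.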

Where [1] appears, read: dose: 12.5 mg/kg/injection, schedule: Q01DX009 (ip), vehicle: water.
[2] abbreviates: dose: 25.0 mg/kg/injection, schedule: Q01DX009 (ip), vehicle: water.
The mark [3] stands for this setting: dose: 50.0 mg/kg/injection, schedule: Q01DX009 (ip), vehicle: water.
Where [4] appears, read: dose: 100.0 mg/kg/injection, schedule: Q01DX009 (ip), vehicle: water.
The mark [5] stands for this setting: dose: 200.0 mg/kg/injection, schedule: Q01DX009 (ip), vehicle: water.
Where [6] appears, read: dose: 100.0 mg/kg/injection, schedule: Q01DX009 (ip), vehicle: Klucel (hydroxypropylcellulose) (HPC).
The mark [7] stands for this setting: dose: 200.0 mg/kg/injection, schedule: Q01DX009 (ip), vehicle: Klucel (hydroxypropylcellulose) (HPC).
Setting [8] is: dose: 400.0 mg/kg/injection, schedule: Q01DX009 (ip), vehicle: Klucel (hydroxypropylcellulose) (HPC).
[9] abbreviates: dose: 12.5 mg/kg/injection, schedule: Q01DX009 (ip), vehicle: saline with Tween-80.
Setting [10] is: dose: 25.0 mg/kg/injection, schedule: Q01DX009 (ip), vehicle: saline with Tween-80.
[11] abbreviates: dose: 50.0 mg/kg/injection, schedule: Q01DX009 (ip), vehicle: saline with Tween-80.
The mark [12] stands for this setting: dose: 100.0 mg/kg/injection, schedule: Q01DX009 (ip), vehicle: saline with Tween-80.
Setting [13] is: dose: 200.0 mg/kg/injection, schedule: Q01DX009 (ip), vehicle: saline with Tween-80.
The mark [14] stands for this setting: dose: 25.0 mg/kg/injection, schedule: Q01DX009 (ip), vehicle: Klucel (hydroxypropylcellulose) (HPC).
[15] abbreviates: dose: 50.0 mg/kg/injection, schedule: Q01DX009 (ip), vehicle: Klucel (hydroxypropylcellulose) (HPC).
The mark [16] stands for this setting: dose: 100.0 mg/kg/injection, schedule: Q04DX003 (ip), vehicle: Klucel (hydroxypropylcellulose) (HPC).
Where [17] appears, read: dose: 200.0 mg/kg/injection, schedule: Q04DX003 (ip), vehicle: Klucel (hydroxypropylcellulose) (HPC).
Where [18] appears, read: dose: 400.0 mg/kg/injection, schedule: Q04DX003 (ip), vehicle: Klucel (hydroxypropylcellulose) (HPC).
The mark [19] stands for this setting: dose: 400.0 mg/kg/injection, schedule: Q01DX009 (ip), vehicle: saline with Tween-80.
Setting [20] is: dose: 12.5 mg/kg/injection, schedule: Q01DX009 (ip), vehicle: saline.
Setting [21] is: dose: 6.25 mg/kg/injection, schedule: Q01DX009 (ip), vehicle: saline.

Values joined by “and” are separate entries in the source; they are usually repeats but may differ in a detail not shown here. Equal values may be shown once. Inconclusive results and toxic doses are left out.

For `CC(C)C(O)(C(=O)OCC1=CC[N+]2(C)CCC(O)C12)C(C)O` (stereo unspecified), the T/C runs as follows: under setting [1], 105 % of control; under setting [2], 107 % of control; under setting [3], 113 % of control; under setting [4], 109 % of control; under setting [5], 108 % of control.
For `COc1ccc(Cl)cc1NC(=O)CC(C)=O`, the T/C runs as follows: under setting [6], 100 % of control; under setting [7], 93 % of control; under setting [8], 96 % of control.
As to `COc1ccc(Cl)cc1NC(=O)C(Br)C(Br)C(=O)O` (stereo unspecified), the T/C by setting is: under setting [9], 102 % of control; under setting [10], 105 % of control; under setting [11], 95 % of control; under setting [12], 89 % of control; under setting [13], 91 % of control.
For `CC1=CC(=O)[C@@H](O)[C@]2(C)[C@H]3[C@@]4(O)OC[C@]35[C@H]([C@@H](C)[C@H]4O)[C@@H](O)C(=O)O[C@@H]5C[C@@H]12`, the T/C was 107 % of control (dose: 0.75 mg/kg/injection, schedule: Q01DX009 (ip), vehicle: saline); 109 % of control (dose: 1.5 mg/kg/injection, schedule: Q01DX009 (ip), vehicle: saline); 117 % of control (dose: 3.0 mg/kg/injection, schedule: Q01DX009 (ip), vehicle: saline); 108 % of control (dose: 6.0 mg/kg/injection, schedule: Q01DX009 (ip), vehicle: saline).
For the compound `O=c1[nH]c2ccccc2nc1CBr`, the T/C is 104 % of control (dose: 0.38 mg/kg/injection, schedule: Q01DX009 (ip), vehicle: saline with Tween-80); 100 % of control (dose: 0.75 mg/kg/injection, schedule: Q01DX009 (ip), vehicle: saline with Tween-80); 104 % of control (dose: 1.5 mg/kg/injection, schedule: Q01DX009 (ip), vehicle: saline with Tween-80); 92 % of control (dose: 3.0 mg/kg/injection, schedule: Q01DX009 (ip), vehicle: saline with Tween-80).
On to `Cn1c2ccccc2c(=O)c2ccc(Cl)cc21`, for which the T/C by setting is: under setting [14], 97 % of control; under setting [15], 97 % of control; under setting [6], 91 % of control.
For the compound `OCCOCC(F)(F)F`, the T/C (dose: 6.25 mg/kg/injection, schedule: Q01DX009 (ip), vehicle: saline with Tween-80) is 94 % of control and 112 % of control; the T/C under setting [9] was 99 % of control and 104 % of control; the T/C under setting [10] is 97 % of control and 103 % of control; the T/C under setting [11] is 92 % of control and 105 % of control; the T/C (dose: 75.0 mg/kg/injection, schedule: Q01DX009 (ip), vehicle: saline with Tween-80) was 93 % of control; the T/C under setting [12] is 102 % of control and 103 % of control. Moreover, the T/C is 88 % of control (dose: 150.0 mg/kg/injection, schedule: Q01DX009 (ip), vehicle: saline with Tween-80); 94 % of control and 105 % of control under setting [13].
Consider `O=C(O)CC(=O)O.[NH-]C1CCCCC1[NH-].[Pt+2]` (stereo unspecified), for which the T/C is, setting by setting: (dose: 10.0 mg/kg/injection, schedule: Q01DX009 (ip), vehicle: dextrose) 150 % of control; (dose: 12.5 mg/kg/injection, schedule: Q01DX009 (ip), vehicle: dextrose) 196 % of control; (dose: 24.0 mg/kg/injection, schedule: Q01DX009 (ip), vehicle: other) 150 % of control; (dose: 25.0 mg/kg/injection, schedule: Q01DX009 (ip), vehicle: dextrose) 163 % of control.
On to `C#CC1(OCC(CCl)OC(N)=O)CCCCC1` (stereo unspecified), for which the T/C was 87 % of control under setting [10] and 104 % of control under setting [12].
Regarding `CCCC(=O)NC1CCc2cc(OC)c(OC)c(OC)c2-c2ccc(OC)c(=O)cc21` (stereo unspecified), the T/C is 115 % of control (dose: 0.15 mg/kg/injection, schedule: Q01DX009 (ip), vehicle: Klucel (hydroxypropylcellulose) (HPC)); 112 % of control (dose: 0.31 mg/kg/injection, schedule: Q01DX009 (ip), vehicle: Klucel (hydroxypropylcellulose) (HPC)); 119 % of control (dose: 0.63 mg/kg/injection, schedule: Q01DX009 (ip), vehicle: Klucel (hydroxypropylcellulose) (HPC)); 123 % of control (dose: 2.5 mg/kg/injection, schedule: Q01DX009 (ip), vehicle: Klucel (hydroxypropylcellulose) (HPC)).
For `COc1ccc(NC(=O)Nc2ccc(C(C)C)cc2)cc1`, the T/C under setting [6] was 94 % of control, the T/C under setting [7] was 94 % of control and the T/C under setting [8] is 97 % of control.
For `NC(=O)CC(NC(=O)OCc1ccccc1)C(N)=O` (stereo unspecified), the T/C was 100 % of control under setting [16], 87 % of control under setting [17] and 87 % of control under setting [18].
For the compound `CN(C)N=Nc1ccnc2c(Br)cccc12`, the T/C by setting is: (dose: 14.4 mg/kg/injection, schedule: Q01DX009 (ip), vehicle: DMSO) 90 % of control; (dose: 24.0 mg/kg/injection, schedule: Q01DX009 (ip), vehicle: DMSO) 97 % of control; (dose: 40.0 mg/kg/injection, schedule: Q01DX009 (ip), vehicle: DMSO) 90 % of control; (dose: 66.7 mg/kg/injection, schedule: Q01DX009 (ip), vehicle: DMSO) 101 % of control.
With `Cc1c(Cl)cccc1NC(=O)C(c1ccccc1)c1ccccc1`, the T/C was 99 % of control under setting [10], 86 % of control under setting [11] and 91 % of control under setting [12].
In the case of `CCOc1ccc(N2C(=O)CSC2=S)cc1`, the T/C reads like this: (dose: 12.5 mg/kg/injection, schedule: Q01DX009 (ip), vehicle: Klucel (hydroxypropylcellulose) (HPC)) 103 % of control; under setting [14], 91 % of control; under setting [15], 95 % of control.
`COc1ccc(NC(=O)Oc2ccc(Cl)c(C)c2)cc1`: the T/C reads like this: under setting [13], 116 % of control; under setting [19], 105 % of control.
Regarding `OC(COc1ccccc1)CN1CCCCC1` (stereo unspecified), the T/C is, setting by setting: under setting [12], 112 % of control; under setting [13], 102 % of control; under setting [19], 114 % of control.
As for `CCC(CC)COC(=O)c1ccccc1C(=O)OCC(CC)CC`, the T/C under setting [9] is 87 % of control.
Take `COc1ccc(OC)c(/C=C/C(=O)c2ccc(Cl)cc2)c1`: the T/C was 92 % of control under setting [6]; 103 % of control under setting [16]; 92 % of control under setting [7]; 109 % of control under setting [17]; 89 % of control under setting [8]; 103 % of control under setting [18].
`O=C1C(Cl)=C(N=Nc2c(Cl)c(O)c3ccccc3c2O)C(=O)c2ccccc21`: the T/C by setting is: under setting [20], 89 % of control; (dose: 25.0 mg/kg/injection, schedule: Q01DX009 (ip), vehicle: saline) 86 % of control.
Consider `COC1=NCN=C2SC=C(N)N=C12`, for which the T/C is, setting by setting: (dose: 3.13 mg/kg/injection, schedule: Q01DX009 (ip), vehicle: saline) 105 % of control; under setting [21], 100 % of control and 109 % of control; under setting [20], 96 % of control and 98 % of control; (dose: 50.0 mg/kg/injection, schedule: Q01DX009 (ip), vehicle: saline) 98 % of control and 100 % of control.
`CC(=O)CC(C)(C)C1CCCCC1`: the T/C runs as follows: under setting [1], 107 % of control; under setting [2], 98 % of control; under setting [3], 95 % of control; under setting [4], 102 % of control; under setting [5], 88 % of control.
In the case of `C/C(=N/N=C(N)N)c1ccc(NC(=O)Nc2ccc(/C(C)=N/N=C(N)N)cc2)cc1`, the T/C is, setting by setting: under setting [14], 99 % of control; under setting [15], 121 % of control; under setting [7], 120 % of control.
As to `CC(CN1CCN(CCOCCO)CC1)CN1c2ccccc2Sc2ccc(Cl)cc21` (stereo unspecified), the T/C (dose: 0.09 mg/kg/injection, schedule: Q01DX009 (ip), vehicle: saline) was 117 % of control; the T/C (dose: 0.19 mg/kg/injection, schedule: Q01DX009 (ip), vehicle: saline) was 98 % of control; the T/C (dose: 0.39 mg/kg/injection, schedule: Q01DX009 (ip), vehicle: saline) was 121 % of control; the T/C (dose: 0.78 mg/kg/injection, schedule: Q01DX009 (ip), vehicle: saline) is 104 % of control; the T/C (dose: 1.56 mg/kg/injection, schedule: Q01DX009 (ip), vehicle: saline) is 115 % of control; the T/C (dose: 3.12 mg/kg/injection, schedule: Q01DX009 (ip), vehicle: saline) was 100 % of control. The T/C under setting [21] is 101 % of control.
